Consider 47 compounds from the Biogen ADME set (Fang et al. 2023).

By aqueous solubility is commonly meant the concentration that dissolves in the medium under given conditions. The low end stands for little dissolved substance, the high end for much dissolved substance.

For the data set the following is noted: for aqueous solubility: pH 6.8.

≈ marks a conversion by molar mass, not a printed value.

Take `CN(Cc1ccccn1)c1nc2ccccc2o1`: the MDR1-MDCK efflux ratio was 0.718; the intrinsic clearance, human liver microsomes was 15 mL/min/kg; the intrinsic clearance, rat liver microsomes came out at 361 mL/min/kg; the aqueous solubility turned out to be 37.8 µg/mL (≈ 158 µM).
`O=S(=O)(Cc1csc(C2CCCC2)n1)C1CCCC1`: the MDR1-MDCK efflux ratio stood at 0.538; the intrinsic clearance, human liver microsomes stood at 92.7 mL/min/kg; the intrinsic clearance, rat liver microsomes was found to be 2190 mL/min/kg; the aqueous solubility was 34.9 µg/mL (≈ 116 µM).
`O=C(Nc1ccccn1)c1cccc2ccccc12` displayed an intrinsic clearance, human liver microsomes of 131 mL/min/kg; an intrinsic clearance, rat liver microsomes of 140 mL/min/kg; an aqueous solubility of 35.3 µg/mL (≈ 142 µM).
Turning to `CN(C[C@@H]1COCCO1)S(=O)(=O)Nc1ccc2ccc3ncc(-c4cnn(C)c4)cc3c(=O)c2c1`, the MDR1-MDCK efflux ratio was 15.5; the intrinsic clearance, human liver microsomes stood at 44.3 mL/min/kg; the intrinsic clearance, rat liver microsomes was 219 mL/min/kg; the aqueous solubility came out at 3.36 µg/mL (≈ 6.78 µM).
Regarding `CCC(=O)Nc1cccc(Oc2nc(Nc3ccc(N4CCN(C)CC4)cc3OC)ncc2Cl)c1`, the MDR1-MDCK efflux ratio was found to be 14; the intrinsic clearance, human liver microsomes turned out to be 15.9 mL/min/kg; the intrinsic clearance, rat liver microsomes is 238 mL/min/kg.
In the case of `Cc1csc(NC(=O)c2ccc(-c3ccncc3)cc2)n1`, the MDR1-MDCK efflux ratio is 0.179; the intrinsic clearance, human liver microsomes was 35.7 mL/min/kg; the intrinsic clearance, rat liver microsomes came out at 305 mL/min/kg; the aqueous solubility came to 2.34 µg/mL (≈ 7.92 µM).
Turning to `CC(C)c1cc(N(C)Cc2nc(C3CC3)n[nH]2)n[nH]1`, the MDR1-MDCK efflux ratio amounted to 16.1; the intrinsic clearance, human liver microsomes was no more than 4.74 mL/min/kg; the intrinsic clearance, rat liver microsomes worked out at 36.7 mL/min/kg.
As to `O=C(Nc1cccc(Cl)c1F)c1cccc(N2CCCC2=O)c1`, the intrinsic clearance, human liver microsomes stood at 82.8 mL/min/kg; the intrinsic clearance, rat liver microsomes was determined as 894 mL/min/kg; the aqueous solubility was 3.4 µg/mL (≈ 10.2 µM).
As for `CS(=O)(=O)CCc1nc(C2(c3ccccc3)CC2)nn1-c1ccccc1`, the MDR1-MDCK efflux ratio worked out at 5.9; the intrinsic clearance, human liver microsomes is 5.64 mL/min/kg; the intrinsic clearance, rat liver microsomes was found to be 131 mL/min/kg; the aqueous solubility was 30.6 µg/mL (≈ 83.3 µM).
In the same order, the values of `O=C([C@H]1CCCN(Cc2ccc(Cl)cc2)C1)N1CCc2ccccc2C1` are 0.788, 251 mL/min/kg, 3840 mL/min/kg and 43.2 µg/mL (≈ 117 µM).
Compound `COc1ccc2c(c1)C(=O)N(c1ccc(C)cc1)C(=O)C2` gave an intrinsic clearance, human liver microsomes of 29.8 mL/min/kg and an intrinsic clearance, rat liver microsomes of 368 mL/min/kg.
Consider `CCc1nnc2n1CCN(C(=O)c1ccccc1Oc1cccnc1)C2`, for which the MDR1-MDCK efflux ratio turned out to be 61.5; the intrinsic clearance, human liver microsomes was found to be 4.83 mL/min/kg; the intrinsic clearance, rat liver microsomes is 74.7 mL/min/kg; the aqueous solubility is 43.4 µg/mL (≈ 124 µM).
On to `NC(=O)c1cccc(Cn2cnc3c(oc4ccccc43)c2=O)c1`, for which the MDR1-MDCK efflux ratio came out at 13.9; the intrinsic clearance, human liver microsomes is no more than 4.74 mL/min/kg; the intrinsic clearance, rat liver microsomes came to 19 mL/min/kg.
In the case of `O=C(Cn1cccc(C(=O)Nc2cccc(-n3cccn3)c2)c1=O)NC1CCCCC1`, the MDR1-MDCK efflux ratio turned out to be 18.7 and the aqueous solubility amounted to 0.8 µg/mL (≈ 1.91 µM).
On to `COc1ccc(-c2nnc(NC(=O)c3ccc4ccccc4c3)o2)cc1OC`, for which the aqueous solubility was found to be 0.27 µg/mL (≈ 0.719 µM).
For the compound `Cc1noc(C)c1-c1cc(-c2ccccc2Cl)nc(C2CC2)n1`, the MDR1-MDCK efflux ratio stood at 0.516; the intrinsic clearance, human liver microsomes is 21.8 mL/min/kg; the intrinsic clearance, rat liver microsomes is 145 mL/min/kg.
On to `COc1cn(-c2ccc(-n3cccn3)cc2F)nc(-c2ccnn2-c2ccccc2)c1=O`, for which the MDR1-MDCK efflux ratio turned out to be 10.9; the intrinsic clearance, human liver microsomes was no more than 4.74 mL/min/kg; the intrinsic clearance, rat liver microsomes is 28.2 mL/min/kg.
Consider `O=C(C1CCCN(c2cnccn2)C1)N1CCc2ccccc2C1` (configuration not stated), for which the intrinsic clearance, human liver microsomes was found to be 273 mL/min/kg; the intrinsic clearance, rat liver microsomes came out at 4500 mL/min/kg; the aqueous solubility was determined as 53.2 µg/mL (≈ 165 µM).
Turning to `COc1ccc([C@H]2CN(C(C)=O)[C@@H]3CCCN(Cc4cccc(F)c4)[C@H]23)cc1`, the MDR1-MDCK efflux ratio was determined as 1.35; the fraction unbound, human plasma amounted to 0.0394; the fraction unbound, rat plasma was determined as 0.0393; the intrinsic clearance, human liver microsomes was 176 mL/min/kg. The compound also yielded an intrinsic clearance, rat liver microsomes of 1970 mL/min/kg and an aqueous solubility of 45 µg/mL (≈ 118 µM).
`O=c1[nH]c2ccccc2n1C1CCN(Cc2nnc(-c3cc4c(s3)CCCC4)o2)CC1` came in with an intrinsic clearance, human liver microsomes of 51.8 mL/min/kg; an intrinsic clearance, rat liver microsomes of 1090 mL/min/kg; an aqueous solubility of 2.45 µg/mL (≈ 5.63 µM).
On to `Cc1ccc(F)c(N(C#N)Cc2nnc(C)o2)c1`, for which the aqueous solubility is 44.6 µg/mL (≈ 181 µM).
For the compound `Cc1ccc(CC(=O)NCc2cccc(C(=O)Nc3ccccc3)c2)cc1`, the MDR1-MDCK efflux ratio turned out to be 1.52 and the aqueous solubility amounted to 0.38 µg/mL (≈ 1.06 µM).
Consider `CC(C)(C)C(=O)N1CCC(Cc2ccc(-c3cccs3)cc2)(C(=O)N2CCCC2)CC1`, for which the MDR1-MDCK efflux ratio was found to be 0.998; the fraction unbound, human plasma stood at 0.00655; the fraction unbound, rat plasma was 0.0102; the intrinsic clearance, human liver microsomes was 223 mL/min/kg. Besides, the intrinsic clearance, rat liver microsomes was determined as 1440 mL/min/kg and the aqueous solubility turned out to be 23 µg/mL (≈ 52.4 µM).
In the case of `CN(Cc1cccc(C#N)c1)Cc1cnn(C)c1`, the MDR1-MDCK efflux ratio worked out at 0.578; the intrinsic clearance, human liver microsomes is no more than 4.74 mL/min/kg; the intrinsic clearance, rat liver microsomes is no more than 10.7 mL/min/kg; the aqueous solubility is 32.1 µg/mL (≈ 134 µM).
`COc1cc(/C=C/c2nccc(C#N)n2)ccc1F`: the aqueous solubility is 3.27 µg/mL (≈ 12.8 µM).
On to `CC(=O)NCC1CCN(C(=O)c2ccc(C)nc2)CC1`, for which the MDR1-MDCK efflux ratio is 130; the intrinsic clearance, human liver microsomes was no more than 4.74 mL/min/kg; the intrinsic clearance, rat liver microsomes was no more than 10.7 mL/min/kg; the aqueous solubility is 54 µg/mL (≈ 196 µM).
In the case of `OCCn1cc(-c2ccc3c(c2)CC/C3=N\O)c(-c2ccncc2)n1`, the MDR1-MDCK efflux ratio was 36.4; the intrinsic clearance, human liver microsomes was 9.21 mL/min/kg; the intrinsic clearance, rat liver microsomes was determined as 123 mL/min/kg; the aqueous solubility came out at 13.7 µg/mL (≈ 41 µM).
The compound `COCc1nc(C2CCN(CCO)CC2)no1` registered an intrinsic clearance, human liver microsomes of no more than 4.74 mL/min/kg; an intrinsic clearance, rat liver microsomes of 72.4 mL/min/kg; an aqueous solubility of 36.1 µg/mL (≈ 150 µM).
On to `Nc1nc2ccccc2n1CCCc1ccccc1`, for which the MDR1-MDCK efflux ratio is 0.966; the intrinsic clearance, human liver microsomes came to 13.4 mL/min/kg; the intrinsic clearance, rat liver microsomes worked out at 463 mL/min/kg; the aqueous solubility was 27.2 µg/mL (≈ 108 µM).
Consider `Cc1ccnc(-n2nccc2NC(=O)N2CCCN(C)CC2)c1`, for which the MDR1-MDCK efflux ratio was 2.95; the intrinsic clearance, human liver microsomes amounted to 13.2 mL/min/kg; the intrinsic clearance, rat liver microsomes is 169 mL/min/kg; the aqueous solubility is 31.7 µg/mL (≈ 101 µM).
As for `CCc1nnsc1C(=O)Nc1cccc(-c2nnc3n2CCCCC3)c1`, the MDR1-MDCK efflux ratio is 47.2; the intrinsic clearance, human liver microsomes came to 15 mL/min/kg; the intrinsic clearance, rat liver microsomes came out at 142 mL/min/kg; the aqueous solubility came out at 32.2 µg/mL (≈ 87.5 µM).
Regarding `CC(C)n1cnnc1-c1cccc(N2Cc3ccc(Br)cc3C2=O)n1`, the MDR1-MDCK efflux ratio amounted to 2.6; the intrinsic clearance, human liver microsomes is 6.01 mL/min/kg; the intrinsic clearance, rat liver microsomes is 55.5 mL/min/kg.
In the case of `Cc1cccnc1CNC(=O)c1ccc(Cl)s1`, the intrinsic clearance, human liver microsomes came out at 39.6 mL/min/kg and the intrinsic clearance, rat liver microsomes turned out to be 399 mL/min/kg.
With `CNc1cc(C)nc(-c2ccnc3c2ccn3C)n1`, the intrinsic clearance, human liver microsomes worked out at 85.7 mL/min/kg; the intrinsic clearance, rat liver microsomes is 82.2 mL/min/kg; the aqueous solubility stood at 29.2 µg/mL (≈ 115 µM).
With `CCOc1ccc(OCCN2CCN(C(C)=O)CC2)cc1`, the MDR1-MDCK efflux ratio came to 0.671; the intrinsic clearance, human liver microsomes is no more than 4.74 mL/min/kg; the intrinsic clearance, rat liver microsomes amounted to 17.5 mL/min/kg.
`Cn1nc(N)c2ccc(Br)cc21`: the MDR1-MDCK efflux ratio came out at 0.72; the intrinsic clearance, human liver microsomes was found to be 24 mL/min/kg; the intrinsic clearance, rat liver microsomes came out at 94.8 mL/min/kg.
With `Cn1ccnc1CN(C(=O)c1[nH]c2ccccc2c1Cl)C1CC1`, the MDR1-MDCK efflux ratio stood at 12.4; the intrinsic clearance, human liver microsomes was found to be 90.5 mL/min/kg; the intrinsic clearance, rat liver microsomes was found to be 2250 mL/min/kg; the aqueous solubility turned out to be 62.3 µg/mL (≈ 189 µM).
Consider `Cc1cc(C)n2nc(C)c(C(=O)NCC3CC3)c2n1`, for which the MDR1-MDCK efflux ratio turned out to be 0.725; the intrinsic clearance, human liver microsomes is 46.7 mL/min/kg; the intrinsic clearance, rat liver microsomes stood at 106 mL/min/kg.
In the case of `O=C(Nc1ccn(Cc2ccc(O)cc2C(F)(F)F)n1)c1c(F)cccc1F`, the MDR1-MDCK efflux ratio was determined as 2.23; the intrinsic clearance, human liver microsomes amounted to 16.7 mL/min/kg; the intrinsic clearance, rat liver microsomes is 438 mL/min/kg; the aqueous solubility was determined as 43.5 µg/mL (≈ 109 µM).
The corresponding values for `Cc1cc(C)c2c(c1)CCCN2C(=O)c1ccc(-c2nnc(C)o2)cc1` are 0.685, 149 mL/min/kg, 2090 mL/min/kg and 52.2 µg/mL (≈ 150 µM).
For `O=C1CCCC[C@@H]2[C@H](C[C@@H](Cc3ccccc3F)N2C(=O)c2cccc3ncccc23)N1`, the MDR1-MDCK efflux ratio stood at 48.1; the fraction unbound, human plasma amounted to 0.19; the fraction unbound, rat plasma stood at 0.223; the intrinsic clearance, human liver microsomes turned out to be 63.7 mL/min/kg. The same compound registered an intrinsic clearance, rat liver microsomes of 400 mL/min/kg.
For `CCN(c1ccccc1)S(=O)(=O)c1ccc(C(=O)Nc2ccccc2C(C)=O)cc1`, the MDR1-MDCK efflux ratio turned out to be 1.18 and the aqueous solubility stood at 0.45 µg/mL (≈ 1.07 µM).
For the compound `Cc1nc2ccccc2n1CCNc1ncccn1`, the intrinsic clearance, human liver microsomes is no more than 4.74 mL/min/kg and the intrinsic clearance, rat liver microsomes was 299 mL/min/kg.
Turning to `COc1ccc(NC(=O)C(C)N2CCCN(c3ccc(C(F)(F)F)cn3)CC2)cc1` (configuration not stated), the MDR1-MDCK efflux ratio came to 0.969; the intrinsic clearance, human liver microsomes worked out at 391 mL/min/kg; the intrinsic clearance, rat liver microsomes was 1930 mL/min/kg; the aqueous solubility was found to be 19.1 µg/mL (≈ 45.1 µM).
For the compound `Cc1cc(Br)ccc1CN(C)C(=O)CO`, the MDR1-MDCK efflux ratio came to 0.75; the intrinsic clearance, human liver microsomes is no more than 4.74 mL/min/kg; the intrinsic clearance, rat liver microsomes was 28.6 mL/min/kg.
For `N#CC1(C(=O)NCC2(C3CC3)CC2)CCCCC1`, the MDR1-MDCK efflux ratio was 0.713; the intrinsic clearance, human liver microsomes stood at 18.9 mL/min/kg; the intrinsic clearance, rat liver microsomes is 1080 mL/min/kg.
Compound `CC(Sc1nc2c(cnn2-c2ccccc2)c(=O)[nH]1)C(N)=O` (configuration not stated) returned an aqueous solubility of 2.15 µg/mL (≈ 6.82 µM).
